# Several values for one entry are separate records, joined by “and”; a condition that tells them apart may be missing. Equal values may be shown once.
# Assays:
# HEK293T cells = system: HEK293T cells
# Method: (§1) Cytotoxicity was measured for the MRC-5 and HEK293T cell lines by MTT assay. Cells were grown in 5% CO2 at 37 °C with MRC-5 cell line maintained in MEMα and HEK293T in DMEM/F-12 media, both of which were supplemented with 10% FBS. The cells were passaged in 25 cm^2 or 75 cm^2 flasks to prepare 96-well plates with 3 × 10^4 cells/well, which were incubated overnight. Next, serial dilutions of ECPep-D and ECPep-2D-Orn were added to have a final concentration ranging from 100 to 0.78 μM (375 μg/mL to 3 μg/mL) and colistin was added at final concentrations ranging from 300 to 2.34 μM (380 μg/mL to 3 μg/mL) in corresponding wells. After incubation to the specified time, the medium of the plate was replaced by fresh medium containing 0.5 mg/mL MTT solution and the mixture was incubated for 2.5 h in 5% CO2 at 37 °C. The medium was then removed, and formazan was dissolved by adding DMSO. The optical density (OD) was recorded by using a Victor^3 plate reader (PerkinElmer, Waltham, MA, USA) set at 540 nm and 620 nm as a reference. Each test was performed in triplicate.
# A. baumannii [1] = assay: Efficacy assay in murine acute systemic infection model (survival); type: in vivo, Balb/c mice; details: 10^8 CFU/kg A. baumannii, colistin 15 mg/kg
# Method: An aliquot from an A. baumannii stock stored in 15% glycerol at −80 °C was taken to culture in 3 mL LB overnight at 250 rpm, 37 °C. Next, OD600 reading of A. baumannii overnight culture was performed to adjust to the number of bacteria required (CFU/mL) and then diluted by half with the same volume of 10% porcine mucin, to obtain a solution of selected CFU/mL in 5% mucin for mice inoculation. […] The inoculating volume was decided based on the body weight of each animal (10 mL/kg).
# When the sum of the scores reached a maximum value of 7, the mice were euthanized following ethical principles. The infection was first tested at a concentration of 10^9 CFU/kg and then set at 10^7 CFU/kg and 10^8 CFU/kg. […] We also performed an extra assay where mice infected by 10^8 CFU/kg of A. baumannii were treated with colistin, used as a positive control.
# To avoid bias, the reagents for these four groups were given to technicians in advance and renumbered randomly, designated as A, B, C, D, respectively. […]
# The clinical symptoms were assessed through a scoring system, which contains 9 items, including changes of body weight, behavior, breathing, skin, hair, eyes and gastrointestinal status (see full list at Table S2). […] During the study, when an animal obtained a score of 3 in any of the parameters assessed with a maximum score of 3, euthanasia was carried out to apply the endpoint criteria. […]
# A. baumannii [2] = type: cell-based, Acinetobacter baumannii; details: 24 h incubation, MHB, triplicate
# Description: (§2) A. baumannii strain (CECT 452, Valencia, Spain, ATCC 15308, Manassas, VA, USA) and Pseudomonas aeruginosa (P. aeruginosa) strain (CECT 4122, Valencia, Spain, ATCC 15692, Manassas, VA, USA) were from the Colección Española de Cultivos Tipo (CECT, Valencia, Spain). The Escherichia coli (E. coli) BL21 (DE3) strain was from Novagen (Darmstadt, Germany). MRC-5 cells were from the American Type Culture Collection (ATCC, Manassas, VA, USA) and HEK293T cell line was kindly provided by Dr. Raquel Pequerul (UAB, Barcelona, Spain).
# (§3) The MIC is defined as the lowest concentration of one reagent to prevent visible growth of bacteria. The MIC determination was followed by the protocol described previously. Briefly, bacteria in exponential growth were used to prepare a suspension in MHB with the approximate number of 5 × 10^5 CFU/mL. Next, an aliquot of 90 μL of bacteria suspension was added into each well of the 96-well polypropylene plate. Immediately, 10 μL of peptide diluted by 0.01% acetic acid was added to the corresponding well to have a final concentration ranging from 20 to 0.16 μM. The plate was incubated for 24 h at 37 °C, 100 rpm. The presence or absence of bacterial growth was visually inspected and confirmed by reading OD600 with Tecan Microplate Reader Spark®. Each test was performed in triplicate.
# P. aeruginosa = type: cell-based, Pseudomonas aeruginosa; details: 24 h incubation, MHB, triplicate
# Description: as §2, §3
# [3] = system: LPSRc (LPS from E. coli J5, Rc mutant); assay: LPS affinity assay (BODIPY TR cadaverine displacement); type: binding; details: 50% of BC probe bound to LPS displaced; Mean ± SE
# Description: (§4) Lipopolysaccharides (LPS) from E. coli O111:B4 (O-LPS), EH100 (Ra mutant), and J5 (Rc mutant), porcine mucin, Mueller Hinton broth (MHB) and Thiazolyl Blue Tetrazolium […] (MTT) were purchased at Sigma-Aldrich (Saint Louis, MO, USA). Colistin sulphate and Dimethyl sulfoxide (DMSO) were from Apollo Scientific (Stockport, UK). BODIPY® TR cadaverine (BC) were from Molecular Probes (Eugene, OR, USA). Mouse TNF-α ELISA Kit (MBS175787, MyBioSource, San Diego, CA, USA) and Mouse LPS ELISA Kit (MBS7700668, MyBioSource, San Diego, CA, USA) were from bioNova científica s.l. (Madrid, Spain) Human TNF-α ELISA set was from BD Biosciences (555212, BD OptEIA^TM, San Jose, CA, USA). Aspidasept® (pep19-2.5) is an antibacterial/anti-inflammatory peptide drug ([…], with C-terminal amide).
# (§5) The LPS affinity was assessed using the fluorescent probe BC by an adaptation of the displacement assay reported. Peptides and colistin were serially diluted in a 96-well fluorescence plate from 20 to 0.16 μM in Tris/HCl 50 mM PH 7.4. Next, LPS and BC diluted in the same buffer were added to have the final concentration of 50 μg/mL and 5 μM, respectively. Fluorescence measurements were performed on Tecan Microplate Reader Spark® at 580 nm of excitation wavelength and 620 nm of the emission wavelength at 5 nm for optimal gain. Each test was performed in triplicate.
# [4] = system: O-LPS (LPS from E. coli O111:B4); assay: as above; type: binding; details: 50% of BC probe bound to LPS displaced; Mean ± SE
# Description: as §4, §5
# [5] = system: LPSRa (LPS from E. coli EH100, Ra mutant); assay: as above; type: binding; details: 50% of BC probe bound to LPS displaced; Mean ± SE
# Description: as §4, §5
# [6] = cited from earlier work
# E. coli = type: cell-based, Escherichia coli; details: 24 h incubation, MHB, triplicate
# Description: as §2, §3
# LPS = LPS in serum of infected mice by ELISA; type: in vivo, Balb/c mice; details: second efficacy assay, colistin 15 mg/kg versus ECPep-D 20 mg/kg, p < 0.1
# Method: In the second efficacy study, the blood of animals that either died for severe clinical symptoms or were euthanized at the end of the assay, were collected for testing TNF-α and LPS levels by ELISA. In order to check the levels of TNF-α and free LPS, only serum was analyzed, after discarding blood cells by centrifugation. The blood from mice was centrifuged at 3200 rpm for 30 min and the supernatants were collected carefully to ensure that there were no sediments left. Mouse ELISA kits for TNF-α and LPS were used.
# According to the description of the manufacturer, LPS level determination is based on the principle of double antibody sandwich technology, where the microplates pre-coated with specific antibodies were used. Following addition of serum samples to the wells, the HRP-Conjugate reagent was added to form an immune complex. After incubation and washing, the unbound enzyme was removed. Then, chromogen substrates were added successively and optical density was recorded using microplate reader set at 450 nm. Sample readings were corrected using the baseline corresponding to serum of mice neither infected nor treated. A calibration standard curve was prepared and final calculated values were positively correlated with the concentration of LPS. Two replicates were performed according to the protocols for the representation of the standard curve and the sample testing.
# MRC-5 cells = assay: Cytotoxicity assay (MTT); details: MTT, Mean ± SE, N.D. = no reduction in cell viability detected at the highest concentration
# Method: as §1
substance,measurement,setting,value
Colistin sulphate [reference compound],IC50 (HEK293T) 48h,"HEK293T cells; MTT, Mean ± SE",> 380.26 µg/mL
same,IC50,"HEK293T cells; read-out: IC50 (HEK293T) 48h, MTT, Mean ± SE",> 300 µM
same,"survival rate, first efficacy assay","A. baumannii [1]; i.p. once every 24 h for 3 days from 2 h post inoculum, peptides 10 mg/kg, 3 days",100%
same,"survival rate after 3 days (72 h), second efficacy assay","A. baumannii [1]; single i.p. dose 2 h post inoculum, peptides 20 mg/kg, 72 h",100%
same,MIC A. baumannii,A. baumannii [2],0.31 μM and 0.40 μg/mL
same,MIC P. aeruginosa,P. aeruginosa,0.31 μM and 0.40 μg/mL
same,EC50,[3],19.2 ± 0.34 µM
same,EC50 LPSRc,[3],24.31 ± 0.42 µg/mL
same,EC50,[4],7.87 ± 0.33 µM
same,EC50 O-LPS,[4],9.97 ± 0.42 µg/mL
same,EC50,[5],13.1 ± 0.4 µM
same,EC50 LPSRa,[5],16.63 ± 0.50 µg/mL
same,LD50 by intraperitoneal administration,"[6]; Swiss albino mice, single injection",20 to 30 mg/kg
same,deaths from neurotoxicity,"[6]; mice receiving 32 mg/(kg × day), after three doses",three of twelve mice died
same,LD50 for the intraperitoneal route,"[6]; mice, ref U.S. National Library of Medicine ChemIDplus 1264-72-8",21.8 mg/kg
same,MIC E. coli,E. coli,5 μM and 6.34 μg/mL
same,"concentration of LPS in serum, Day 3",LPS,slightly increased
same,LD50 (MRC-5) 24 h,MRC-5 cells; 24 h,>300 μM and >380.26 μg/mL
same,LD50 (MRC-5) 48 h,MRC-5 cells; 48 h,>300 μM and >380.26 μg/mL

# From publication PMC8962335, “In Vivo Evaluation of ECP Peptide Analogues for the Treatment of Acinetobacter baumannii Infection” (Biomedicines, 2022)
